Experimental data taken from US12371454B2, “Cyclic peptide compound having Kras inhibitory action” (priority 2019, dated 2025).
Starred links: 1 amine or outer side, 2 acyl side, 3 side chain; linkers in the order of their positions; H or OH if unused. Positions of bridges follow the written chain, without caps; N, C: chain ends. Non-standard residues stand in square brackets, D forms with d. Residues, ends and D or L forms follow the SMILES beside them. *: point of attachment. hPhe(3-Cl-4-CF3) = N[C@@H](CCc1ccc(C(F)(F)F)c(Cl)c1)C(=O)O; NMePhe(4-CF3) = CN[C@@H](Cc1ccc(C(F)(F)F)cc1)C(=O)O; hPhe(4-CF3) = N[C@@H](CCc1ccc(C(F)(F)F)cc1)C(=O)O; NMePhe(3-CN) = CN[C@@H](Cc1cccc(C#N)c1)C(=O)O; NMePhe(4-CN) = CN[C@@H](Cc1ccc(C#N)cc1)C(=O)O; NMePhe(4-Cl) = CN[C@@H](Cc1ccc(Cl)cc1)C(=O)O; NMePhe(4-Me) = CN[C@@H](Cc1ccc(C)cc1)C(=O)O; NMePhe(4-F) = CN[C@@H](Cc1ccc(F)cc1)C(=O)O; NMePhe(4-I) = CN[C@@H](Cc1ccc(I)cc1)C(=O)O; NMedβ3hAla = C[C@H](CC(=O)[*:2])N(C)[*:1]; Phe(3-Cl) = N[C@@H](Cc1cccc(Cl)c1)C(=O)O; Phe(3-I) = N[C@@H](Cc1cccc(I)c1)C(=O)O; Pro(4,4-F2) = O=C(O)[C@@H]1CC(F)(F)CN1; X10 = CC(C)=CC[C@H](N[*:1])C(=O)[*:2]; NMeCha = CN[C@@H](CC1CCCCC1)C(=O)O; NMehLeu = CN[C@@H](CCC(C)C)C(=O)O; NMeF = CN[C@@H](Cc1ccccc1)C(=O)O; NMeI = CC[C@H](C)[C@H](NC)C(=O)O; NMeD = CN[C@@H](CC(=O)O)C(=O)O; NMeL = CN[C@@H](CC(C)C)C(=O)O; NMeV = CN[C@H](C(=O)O)C(C)C; d(β3hA) = C[C@@H](N)CC(=O)O; NMeA = CN[C@@H](C)C(=O)O; NMeAib = CNC(C)(C)C(=O)O; Piperidide = C1CCN(*)CC1; Pra = C#CC[C@H](N)C(=O)O; Pyrrolidide = C1CCN(*)C1; Ac5c = NC1(C(=O)O)CCCC1; Aze = O=C(O)[C@@H]1CCN1; Ac4c = NC1(C(=O)O)CCC1; Sar = CNCC(=O)O

The molecules below were run against T1, Kras and SOS1 (biotin-tagged human Kras loaded with GDP, His-tagged human SOS1) (Homo sapiens, UniProt P01116, G12D) (assay: Protein-protein interaction inhibition between Kras and SOS1 (KrasGl2D-SOS PPI) using AlphaScreen). Conditions: AlphaScreen; biotin-tagged human Kras loaded with GDP, His-tagged human SOS1; read-out: KRAS G12D-SOS PPI IC50.
T1 construct: made in house; host or cells: E. coli (stated for Kras only)
T1 sequence (P01116 1-188 isoform P01116-2 G12D): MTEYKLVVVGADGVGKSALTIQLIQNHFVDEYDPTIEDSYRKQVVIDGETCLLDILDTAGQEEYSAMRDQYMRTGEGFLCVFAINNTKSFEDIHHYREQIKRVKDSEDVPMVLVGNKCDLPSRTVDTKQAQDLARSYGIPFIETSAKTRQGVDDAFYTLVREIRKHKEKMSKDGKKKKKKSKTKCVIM
Assay type: binding
In short: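 Donor beads (nickel) hold His-SOS1; acceptor beads (streptavidin) hold biotin-Kras bound to GDP. Signal measured at 520-620 nm following 680 nm excitation.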

Structure (SMILES)	IC50 [µM]
CC[C@H](C)[C@@H]1NC(=O)[C@H](CC(C)C)N(C)C(=O)C[C@@H](C(=O)N(C)C)N(C)C(=O)[C@H]([C@@H](C)CC)N(C)C(=O)C2(CCCC2)NC(=O)[C@H](Cc2ccc(C#N)cc2)N(C)C(=O)[C@H](CCc2ccc(C(F)(F)F)c(Cl)c2)NC(=O)CN(C)C(=O)[C@H](Cc2ccc(C)cc2)N(C)C(=O)[C@@H]2CCN2C(=O)[C@H](C)N(C)C1=O [Compound 1927] ([NMeL]I[NMeA][Aze][NMePhe(4-Me)][Sar][hPhe(3-Cl-4-CF3)][NMePhe(4-CN)][Ac5c][NMeI][NMeD]-NMe2; lactam N-11)	0.0033
CC[C@H](C)[C@@H]1NC(=O)[C@H](CC(C)C)N(C)C(=O)C[C@@H](C)N(C)C(=O)[C@H](CCC(C)C)N(C)C(=O)C2(CCCC2)NC(=O)[C@@H]2CCCN2C(=O)[C@H](CCc2ccc(C(F)(F)F)c(Cl)c2)NC(=O)CN(C)C(=O)[C@H](CC2CCCCC2)N(C)C(=O)CN(C)C(=O)CN(C)C1=O [Compound 22] (cyclo([Ac5c][NMehLeu][NMedβ3hAla][NMeL]I[Sar][Sar][NMeCha][Sar][hPhe(3-Cl-4-CF3)]P))	0.11
CC[C@H](C)[C@@H]1NC(=O)[C@H](CC(C)C)N(C)C(=O)C[C@@H](C(=O)N2CCCCC2)N(C)C(=O)[C@H](C(C)C)N(C)C(=O)C2(CCCC2)NC(=O)[C@@H]2CCCN2C(=O)[C@H](CCc2ccc(C(F)(F)F)c(Cl)c2)NC(=O)CN(C)C(=O)[C@H](Cc2cccc(C#N)c2)N(C)C(=O)CN(C)C(=O)CN(C)C1=O [Compound 710] ([NMeL]I[Sar][Sar][NMePhe(3-CN)][Sar][hPhe(3-Cl-4-CF3)]P[Ac5c][NMeV][NMeD]-Piperidide; lactam N-11)	0.0044
CC[C@H](C)[C@@H]1NC(=O)[C@H](CC(C)C)N(C)C(=O)C[C@@H](C)N(C)C(=O)[C@H]([C@@H](C)CC)N(C)C(=O)C2(CCC2)NC(=O)[C@@H]2CC(F)(F)CN2C(=O)[C@H](CCc2ccc(C(F)(F)F)c(Cl)c2)NC(=O)CN(C)C(=O)[C@H](Cc2ccc(C(F)(F)F)cc2)N(C)C(=O)CN(C)C(=O)CN(C)C1=O [Compound 1074] (cyclo([Ac4c][NMeI][NMedβ3hAla][NMeL]I[Sar][Sar][NMePhe(4-CF3)][Sar][hPhe(3-Cl-4-CF3)][Pro(4,4-F2)]))	0.011
CC[C@H](C)[C@@H]1NC(=O)[C@H](CC(C)C)N(C)C(=O)C[C@@H](C(=O)N2CCCCC2)N(C)C(=O)[C@H](CC(C)C)NC(=O)C(C)(C)N(C)C(=O)[C@H](CC=C(C)C)NC(=O)[C@H](Cc2cccc(I)c2)NC(=O)CN(C)C(=O)[C@H](Cc2ccc(Cl)cc2)N(C)C(=O)[C@@H]2CCN2C(=O)[C@H](C)N(C)C1=O [Compound 1419] ([NMeL]I[NMeA][Aze][NMePhe(4-Cl)][Sar][Phe(3-I)][X10][NMeAib]L[NMeD]-Piperidide; lactam N-11)	0.046
C#CC[C@@H]1NC(=O)[C@H](Cc2cccc(I)c2)NC(=O)CN(C)C(=O)[C@H](Cc2ccc(F)cc2)N(C)C(=O)[C@@H]2CCN2C(=O)CN(C)C(=O)[C@H]([C@@H](C)CC)NC(=O)[C@H](CC(C)C)N(C)C(=O)C[C@@H](C(=O)N2CCCCC2)N(C)C(=O)[C@H](CC(C)C)NC(=O)C(C)(C)N(C)C1=O [Compound 1344] ([NMeL]I[Sar][Aze][NMePhe(4-F)][Sar][Phe(3-I)][Pra][NMeAib]L[NMeD]-Piperidide; lactam N-11)	0.19
CC[C@H](C)[C@@H]1NC(=O)[C@H](C)N(C)C(=O)C[C@@H](C(=O)N2CCCC2)NC(=O)[C@H](C(C)C)N(C)C(=O)[C@H](Cc2ccccc2)N(C)C(=O)[C@H](C)NC(=O)[C@H](Cc2cccc(Cl)c2)NC(=O)CN(C)C(=O)[C@H](Cc2ccc(Cl)cc2)N(C)C(=O)CN(C)C(=O)CN(C)C1=O [Compound 612] ([NMeA]I[Sar][Sar][NMePhe(4-Cl)][Sar][Phe(3-Cl)]A[NMeF][NMeV]D-Pyrrolidide; lactam N-11)	0.12
CC[C@H](C)[C@@H]1NC(=O)[C@H](C)N(C)C(=O)C[C@@H](C(=O)N(C)C)N(C)C(=O)[C@H]([C@@H](C)CC)N(C)C(=O)C2(CCCC2)NC(=O)[C@H](Cc2ccc(I)cc2)N(C)C(=O)[C@H](CCc2ccc(C(F)(F)F)c(Cl)c2)NC(=O)CN(C)C(=O)[C@H](Cc2ccc(C)cc2)N(C)C(=O)[C@@H]2CCN2C(=O)[C@H](C)N(C)C1=O [Compound 1953] ([NMeA]I[NMeA][Aze][NMePhe(4-Me)][Sar][hPhe(3-Cl-4-CF3)][NMePhe(4-I)][Ac5c][NMeI][NMeD]-NMe2; lactam N-11)	0.051
CC[C@H](C)[C@@H]1NC(=O)[C@H](C)N(C)C(=O)C[C@@H](C(=O)N2CCCCC2)N(C)C(=O)[C@H](C(C)C)N(C)C(=O)C2(CCCC2)NC(=O)[C@@H]2CCCN2C(=O)[C@H](CCc2ccc(C(F)(F)F)c(Cl)c2)NC(=O)[C@H]2CCCN2C(=O)[C@H](CC2CCCCC2)N(C)C(=O)CN(C)C(=O)CN(C)C1=O [Compound 135] ([NMeA]I[Sar][Sar][NMeCha][dP][hPhe(3-Cl-4-CF3)]P[Ac5c][NMeV][NMeD]-Piperidide; lactam N-11)	0.038
CC[C@H](C)[C@@H]1NC(=O)[C@H](CC(C)C)N(C)C(=O)C[C@@H](C)NC(=O)[C@H](CC(C)C)N(C)C(=O)C2(CCCC2)NC(=O)[C@@H]2CCCN2C(=O)[C@H](CCc2ccc(C(F)(F)F)cc2)NC(=O)CN(C)C(=O)[C@H](CC2CCCCC2)N(C)C(=O)CN(C)C(=O)CN(C)C1=O [Compound 414] (cyclo([Ac5c][NMeL][d(β3hA)][NMeL]I[Sar][Sar][NMeCha][Sar][hPhe(4-CF3)]P))	0.11
